{"source": "paper PMC11865978", "about": "“Cellular Activity of CQWW Nullomer-Derived Peptides” (ACS Omega, 2025)", "key": {"[1]": {"test_system": "Met, ERBB2, CCND1, PTEN, PARP1, GSK3B", "assay": "RPPA with STRING network analysis", "assay_type": "cell-based, human", "conditions": "peptide at 3 μM", "experimental": "(§1) growth and stemness was further supported by the addition of laminin extracellular matrix (Cultrex 3446-005-01, 4-10 mg/mL) to the growth media and to create pre-coated flasks/384w plates. Cells were cultured in T75 cm2 flasks and passaged as follows: Glioma stem cells generally grow slowly (~60hrs doubling time, excepting GCGR-E57 cells ~24hrs) and lag phase was exacerbated by sparse seeding. Cell confluence is generally ~80 -90% prior to passaging, whereby the culture media was aspirated, the cells washed (PBS) and Accutase solution (Sigma A6964, 1 mL) was added to detach the cells, which were then incubated at 37 °C for <5 minutes. Cells were resuspended in media and centrifuged for 3 minutes at 300 × g. Resuspended cells were typically split 1:5, 1:8 (GCGR-E57 cells) and 1:2, 1:4 for the remainder of cell lines, depending on requirements . Cells were passaged every 4-7 days to maintain health and growth and discarded after 3 months, whereupon a fresh batch of cells […]\nCulture media was aspirated and cells washed with wash media. […] A 10 μL sample of the cell suspension was pipetted onto the reading surface of a DeNovix CellDrop automated cell counter and the reading was used to dilute the suspension in complete media to 250,000 cells/mL. […]\nThe cell pellet preparation was performed on ice. […] The supernatant was aspirated, and the pellets were stored at -80 °C until ready for RPPA. […]"}, "GSK-3": {"test_system": "GSK-3", "assay": "Reverse phase protein array (RPPA)", "assay_type": "cell-based, human", "conditions": "peptides at 3 μM, 3 h and 24 h (peptide 7: 24 h only), seven cell lines; fold difference vs water control", "description": "The phenotypic effect of the peptides was visualized by live cell imaging (Figure 1C, IncuCyte live cell imager) and also quantified via image analysis of cells labeled with the cell painting reagents (see Supporting Information) followed by image analysis using Cell Profiler (cellprofiler.org). Multiparametric outputs from Cell Profiler were processed using Phenonaut[46] [v 2.0.3] (see Jupyter notebook ‘Phenonaut_processing_of_nullomer_data.ipynb’ in the Aminonaut repository for methods and code used). […] Peptides 2, 5, and 7 were deemed to have the most merit for mode of action determination using reverse phase protein arrays (RPPAs) (see Supporting Information for methods). […]\nas §1\nReverse Phase Protein Array (RPPA)\nCulture media was aspirated and cells washed with wash media. Accutase solution (1mL) was used to detach the cells which were then incubated at 37 °C for 5 minutes. 10 mL of wash media was added, and the cells were pipetted into a 15 mL conical tube, after which they were centrifuged for 3 minutes at 300× g to form a pellet. Supernatant was aspirated, and cells resuspended in 5 mL of wash media. A 10 μL sample of the cell suspension was pipetted onto the reading surface of a DeNovix CellDrop automated cell counter and the reading was used to dilute the suspension in complete media to 250,000 cells/mL. 2 mL of this suspension was added to each well of 6-well plates to seed plates at 500,000 cells per well. 2 plates of each cell type (GCGR-E13, GCGR-E21, GCGR-E28, GCGR-E31, GCGR-E34, GCGR-E57 and GCGR-NS9FB_B) were seeded, one each for two nullomer dosage […]\ntimepoints (3 h and 24 h). The cells were incubated in the 6-well plates overnight, and dosing was carried out in the following morning. […]"}}}
{"substance": "H-RRRRRCQWW-NH2 [Peptide 2]", "values": [{"measurement": "proteins with decreased expression (RPPA, STRING network analysis)", "setting": "[1]", "value": "PTEN, PARP1, GSK3B"}, {"measurement": "proteins with increased expression (RPPA, STRING network analysis)", "setting": "[1]", "value": "Met, ERBB2, CCND1"}, {"measurement": "GSK-3 regulation in RPPA", "setting": "GSK-3", "value": "downregulation of GSK-3β"}]}
